In patent US7807422B2, “Production of flavonoids by recombinant microorganisms” (The Research Foundation of State University of New York, priority 2004, dated 2010):

Key:
E. coli BL21 Star = assay: Effect of phenylpropanoid acids on E. coli growth (growth curves); type: cell-based; conditions: 2 mM cinnamic acid, M9 minimal medium
Procedure: Growth Curves. In order to investigate the effect of Phenylpropanoid acids on E. coli growth, E. coli BL21 Star was inoculated in 3 ml M9 liquid minimum medium and was left to grow at 37° C. overnight (preinoculum). The following day, 1 ml from the preinoculum was transferred to either 50 ml M9 minimal or Luria-Bertani (LB) rich liquid medium and p-coumaric acid, caffeic acid or cinnamic acid were added in the culture at different final concentrations (0 mM, 0.2 mM, 0.5 mM, 1 mM and 2 mM). Cell growth was monitored by measuring the absorbance at 600 nm (A600).
Phenylpropanoid acids reduce E. coli growth. We tested the effect of both p-coumaric acid and cinnamic acid on E. coli growth by incubating BL21 Star in M9 minimum medium and LB rich medium in the presence of different concentration of these compounds (0 mM, 0.05 mM, 0.1 mM, 0.15 mM, 0.2 mM, 1 mM, and 2 mM). […] For example, in the case of p-coumaric acid in […], the growth rate dropped from 0.28 h^−1 (control, 0 mM) to 0.18 h^−1 (2 mM). Similarly, for cinnamic acid the growth rate dropped from 0.27 h^−1 (control, 0 mM) to 0.17 h^−1 (2 mM) in M9 minimal medium.

[1] = test system: S. cerevisiae strain INVSC1 carrying plasmid Ycc4c181; assay: Growth of recombinant yeast fed with phenylpropanoid acids; type: cell-based; conditions: preliminary data
Procedure: Yeast Shake Flask Experiment. A single colony of strain INVSC1 carrying plasmid Ycc4c181 was inoculated into 15 ml of SC-Leu minimal medium containing 2% glucose and was left to grow overnight at 30° C. with shaking (preinoculum). The following day, 50 ml induction medium (SC-Leu medium containing 2% galactose) was seeded with medium-free preinoculum to a final absorbance at 600 nm (A600) of 0.4. Cells were then left to grow at 30° C. with vigorous shaking for 4 hours. At that time, 50 μl of a 0.25 M stock solution of substrate (cinnamic acid, p-coumaric acid, caffeic acid or ferulic acid) were added to the culture to a final concentration of 0.25 mM. The culture was left to grow at 30° C. for a total of 65 hours with horizontal shaking. During that time, the culture was supplemented with another 50 μl of substrate stock every 12 hours for a total of 4 times.
Cinnamic acid was provided in a total of 5 increments to the culture. […] In all cases, after 65 hours of fermentation, only trace amounts of cinnamic acid were detected in the culture.
Flavanone compounds were identified by comparison of the retention time and UV profile with those of authentic standards and literature data.

[2] = test system: flavanone biosynthesis in recombinant yeast strain INV-4G; assay: Eriodictyol production from caffeic acid by INV-4G in the presence of luteolin; type: cell-based, S. cerevisiae; conditions: varying luteolin concentrations (1, 3, 10 mg/L)
Text: Heterologous expression and fermentation. In order to assemble the two different flavone biosynthetic pathways, recombinant INVSc1 carrying plasmid Ycc4c181G was transformed with YC-FSI, YC-FSII or YC-FSII+CPR1 separately, yielding recombinant strains INV-4G+FSI, INV-4G+FSII, and INV-4G+FSII+CPR1. Yeast colonies harboring both plasmids were selected upon growth on SC agar plates lacking leucine and tryptophan (SC-Leu-Trp-). For flavone fermentation purposes, an individual recombinant yeast colony was grown overnight in 10-mL liquid SC-Leu-Trp-containing glucose at 30° C. with shaking. The following day, a portion of this culture was used to seed the main culture of SC-Leu-Trp-containing galactose and raffinose or MA-Leu-Trp-containing galactose and acetate to an Ab600 of 0.4. 0.5 mM of phenylpropanoid acid (cinnamic acid, p-coumaric acid, caffeic acid, ferulic acid) was then added to the main culture, and incubation was carried out at 30° C. with horizontal shaking for a maximum of 92 hours.
The efficiency of eriodictyol production from caffeic acid by INV-4G in the presence of varying luteolin concentrations was also tested.

Row | SMILES | growth rate (E. coli BL21 Star) [h⁻¹] | concentration in the medium resulting in significant cell growth arrest [1] | regulation (feedback inhibition) of flavanone biosynthesis [2]
1 | O=C(O)C=Cc1ccccc1 [cinnamic acid] | 0.17 | above 0.5 mM | 
2 | O=c1cc(-c2ccc(O)c(O)c2)oc2cc(O)cc(O)c12 [luteolin] |  |  | did not regulate
